According to patent EP0533226A2, “Novel chromophore containing compounds” (MERCK & CO. INC., priority 1991, dated 1993):
The star is where a group is joined. AMC = Cc1cc(=O)oc2cc(N*)ccc12

Experiments:
Type in all cases: biochemical
[1] = molecular target: T1, interleukin-1β converting enzyme (Homo sapiens, UniProt P29466); experiment: Direct spectrophotometric assay of ICE activity of DEAE-purified THP-1 cell lysate (Example 2); parameters: THP-1 cell lysate purified approximately 100-fold using DEAE-anion exchange chromatography; endogenous in cells; host or cells: THP-1 cells (lysate, about 100-fold DEAE-purified); settings: 25 °C, pH 7.5
T1 sequence (P29466 120-297 limits assumed): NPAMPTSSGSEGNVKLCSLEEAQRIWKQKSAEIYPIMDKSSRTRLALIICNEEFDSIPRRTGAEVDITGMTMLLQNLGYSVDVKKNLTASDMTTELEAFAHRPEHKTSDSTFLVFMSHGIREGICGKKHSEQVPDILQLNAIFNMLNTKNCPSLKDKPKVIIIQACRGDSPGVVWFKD
T1 sequence (P29466 317-404 limits assumed): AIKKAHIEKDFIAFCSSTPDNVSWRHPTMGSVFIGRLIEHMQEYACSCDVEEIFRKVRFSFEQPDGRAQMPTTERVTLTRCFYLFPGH
Method: Direct Assay: Interleukin 1β activity of Activity of DEAE-purified THP-1 cell lysate. Enzyme: THP-1 cell lysate purified approximately 100-fold using DEAE-anion exchange chromatography stock concentration = 5 units/ul (a unit is defined as the amount of enzyme required to produce 1 pmole of p-NA/min at 25 degrees using saturating levels of substrate. p-NA is para-nitroanaline.
Substrate: Ac-Tyr-Val-Ala-Asp-p-NA 5 mM stock solution in DMSO
(§1) Buffer: 100 mM Hepes 10% sucrose 0.1% Chaps 1 mM DTT 1 mg/ml BSA pH 7.5
At 25 ° C, […] of Buffer as defined above.
Reaction is monitored continuously in a Cary 219 spectrophotometer at a wavelength of 410 nm. Results: The rate of the reaction under these conditions is 0.005 absorbance units/min, corresponding to 0.5 uM pNA produced/min.

[2] = molecular target: T1, interleukin-1β converting enzyme; experiment: Direct fluorometric assay of ICE activity of DEAE-purified THP-1 cell lysate (Example 1A); parameters: THP-1 cell lysate purified approximately 100-fold using DEAE-anion exchange chromatography; endogenous in cells; host or cells: THP-1 cells (lysate, about 100-fold DEAE-purified); settings: substrate cleavage, 25 °C, pH 7.5, 5 µl of 5 mM substrate and 5 µl enzyme (5 units/ul) in 490 µl buffer
Method: Direct Assay: Interleukin 1β activity of Activity of DEAE-purified THP-1 cell lysate.
(§2) Enzyme: THP-1 cell lysate purified approximately 100-fold using DEAE-anion exchange chromatography stock concentration = 5 units/ul (a unit is defined as the amount of enzyme required to produce 1 pmole of AMC/min at 25 degrees using saturating levels of substrate (> = 50 µM).
Substrate: N-(N-Acetyl-Tyrosinyl)-Valinyl-alaninylaspartic acid 7-amino-4-methylcoumarin amide (i.e. Ac-Tyr-Val-Ala-Asp-AMC) 5 mM stock solution in DMSO
Buffer: 100 mM Hepes 10% sucrose 0.1% Chaps 1 mM DTT 1 mg/ml BSA pH 7.5 At 25 ° C, 5µl of substrate and 5µl of enzyme was added to 490 µl of Buffer as defined above.
Liberation of 7-Amino-4-methylcoumarin (AMC) was monitored using a Gilford Fluoro IV Spectrofluorometer using an excitation wavelength of 380 nm and an emmission wavelength of 460nm. 1µM AMC = 100% relative fluoroscence.

[3] = molecular target: T1, interleukin-1β converting enzyme; experiment: Direct fluorometric assay of ICE activity of DEAE-purified THP-1 cell lysate in the presence of an enzyme inhibitor (Example 1B); parameters: THP-1 cell lysate purified approximately 100-fold using DEAE-anion exchange chromatography; endogenous in cells; host or cells: THP-1 cells (lysate, about 100-fold DEAE-purified); settings: 25 °C
Method: Direct Assay: Interleukin 1β activity of Activity of DEAE-purified THP-1 cell lysate in the presence of an enzyme inhibitor.
as §2
Substrate: Ac-Tyr-Val-Ala-Asp-AMC 5 mM stock solution in DMSO
as §1
Sample: compound Z (i.e. N-(N-acetyl-tyrosinylvalinyl-alaninyl)-3-amino-4-oxo butanoic acid) 2µM in H20
At 25 ° C, 5µl of substrate 5µl of enzyme and 5µl of sample were added to 485 µl of Buffer as defined above.
Liberation of AMC was monitored using a Gilford Fluoro IV Spectrofluorometer using an excitation wavelength of 380 nm and an emmission wavelength of 460nm. 1µM AMC = 100% relative fluoroscence.

[4] = molecular target: T1, interleukin-1β converting enzyme; experiment: Coupled fluorometric assay of ICE activity of DEAE-purified THP-1 cell lysate with leucine aminopeptidase (LAPM) (Example 3); parameters: THP-1 cell lysate purified approximately 100-fold using DEAE-anion exchange chromatography; endogenous in cells; host or cells: THP-1 cells (lysate, about 100-fold DEAE-purified); The coupling enzyme LAPM was purchased from Sigma, No. L-0632, and comes from porcine kidney microsomes; settings: 25 C
Method: Coupled Assay: Interleukin 1β activity of Activity of DEAE-purified THP-1 cell lysate.
Enzyme: THP-1 cell lysate purified approximately 100-fold using DEAE-anion exchange chromatography stock concentration = 5 units/ul (a unit is defined as the amount of enzyme required to produce 1 pmole of AMC/min at 25 degrees using saturating levels of substrate ( = 50 uM).
Coupling Enzyme: Leucine Aminopetidase Microsomal (Type IV) (LAPM) (purified from porcine kidney microsomes) EC 3.4.11.2 Sigma No. L-0632 12.5 units/ml stock solution in DMSO
Substrate: Ac-Tyr-Val-Ala-Asp-Gly-AMC 5 mM stock solution in DMSO
as §1
At 25 C, 5µl of substrate 50 µl of LAPM, 5µl of ICE were added to 440 µl of buffer. Reaction is monitored continuously in a Gilford Fluoro-IV Spectrofluorometer. excitation wavelength = 380 nm emission wavelength = 460 nm 1 uM AMC = 100% relative fluoroescence

[5] = 5 µl of sample 2µM in 500 µl, substrate Ac-Tyr-Val-Ala-Asp-AMC

## CC(=O)N[C@@H](Cc1ccc(O)cc1)C(=O)N[C@H](C(=O)N[C@@H](C)C(=O)N[C@@H](CC(=O)O)C(=O)Nc1ccc([N+](=O)[O-])cc1)C(C)C [Ac-Tyr-Val-Ala-Asp-p-NA]
[1]; corresponding to the absorbance rate at 410 nm
  rate of the reaction (pNA produced): 0.5 uM pNA produced/min
[1]; substrate cleavage monitored at 410 nm, 5 mM substrate stock
  rate of the reaction: 0.005 absorbance units/min

## CC(=O)N[C@@H](Cc1ccc(O)cc1)C(=O)N[C@H](C(=O)N[C@@H](C)C(=O)N[C@@H](CC(=O)O)C(=O)Nc1ccc2c(C)cc(=O)oc2c1)C(C)C [Ac-Tyr-Val-Ala-Asp-AMC, N-(N-Acetyl-tyrosinyl-valinyl-alaninyl)-aspartic acid a-7-amino-4-methylcoumarin amide]
[2]
  rate: 0.005 mM AMC/min
[2]; 1µM AMC = 100% relative fluorescence
  100% relative fluoroscence achieved in: 20 min
[3]; uninhibited initial velocity of substrate cleavage in the presence of compound Z, pH 7.5
  initial velocity: 0.05 uM AMC produced/min

## N-(N-Acetyl-tyrosinyl-valinyl-alaninyl-aspartylglycinyl)-7-amino-4-methylcoumarin (Ac-YVADG-{AMC}; SMILES CC(=O)N[C@@H](Cc1ccc(O)cc1)C(=O)N[C@H](C(=O)N[C@@H](C)C(=O)N[C@@H](CC(=O)O)C(=O)NCC(=O)Nc1ccc2c(C)cc(=O)oc2c1)C(C)C) [Ac-Tyr-Val-Ala-Asp-Gly-AMC]
[4]; 7 x t 1/2, coupled assay with LAPM
  time required to reach 99% of the steady state of the ICE reaction: 11 min
[4]; coupled assay with LAPM, 5 µl of 5 mM substrate, 5 µl ICE in 500 µl, pH 7.5
  velocity of the steady state reaction: 0.05 uM AMC/min
[4]; lag phase, determined by the amount of coupling enzyme (50 µl LAPM, 12.5 units/ml stock)
  rate constant that describes the approach to steady state: 0.44 + 0.01 min -1

## N-(N-acetyl-tyrosinylvalinyl-alaninyl)-3-amino-4-oxo butanoic acid [Compound Z]
[3]; [5]
  half-life for the slow onset of inhibition: 2.7 min
  rate constant for inhibition: 0.25 min-^1
[3]; slow onset of inhibition, value eventually approached, 5 µl of sample 2µM in 500 µl
  inhibition: ~100%
[3]; substrate Ac-Tyr-Val-Ala-Asp-AMC, 5 µl of sample 2µM in H2O in 500 µl, pH 7.5
  kind of inhibition: slow, tight-binding inhibitor
